Measured values from PubChem BioAssay (NCI).
Where “and” joins values, the source holds several entries; their conditions need not be identical. Equal entries are not always repeated.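 Growth conditions: 96-well plates. Treatment: test compound, 48 hours, 5 concentrations. Analysis: linear interpolation between bracketing concentrations; unreached endpoints set to highest concentration. Abbreviation: GI50, concentration required for 50% inhibition of growth. TGI is the concentration that stops growth completely.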

How the values were obtained:
Assay in all cases: NCI tumour cell line growth inhibition, 48 h
LXFL 529 NSCLC = test system: LXFL 529 NSCLC
DMS 114 small cell lung = test system: DMS 114 small cell lung
RXF-631 renal = test system: RXF-631 renal
HOP-18 NSCLC = test system: HOP-18 NSCLC
MDA-N = test system: MDA-N
NCI/ADR-RES ovarian = test system: NCI/ADR-RES ovarian
PC-3 prostate = test system: PC-3 prostate
SN12K1 renal = test system: SN12K1 renal
DU-145 prostate = test system: DU-145 prostate
P388/ADR leukemia = test system: P388/ADR leukemia
MDA-MB-435 = test system: MDA-MB-435

Structure (SMILES) | TGI (LXFL 529 NSCLC) [µM] | TGI (DMS 114 small cell lung) [µM] | TGI (RXF-631 renal) [µM] | TGI (HOP-18 NSCLC) | other results
C[C@]12CC[C@H](OC(=O)Nc3ccccc3)CC1=CC[C@@H]1C2CC[C@]2(C)/C(=N/OC(=O)Nc3ccccc3)CCC12 (some centres not stated) | 2.52 | > 100 | > 100 | 37.9 µM | –
COC(=O)C1=C(O)c2cc(OC)c(OC)c(OC)c2C(c2ccc3c(c2)OCO3)[C@@H]1C(=O)OC (some centres not stated) | > 100 | 5.96 | > 100 | > 100 µM | –
Cn1cnnc1Sc1c([N+](=O)[O-])nc(-c2ccc([N+](=O)[O-])cc2)n1C | 26.8 | 32.4 | 32.8 | 31.3 µM | –
CN(C)C(=S)/N=c1\ssc(=Nc2ccccc2)n1-c1ccccc1 | – | 29.8 | > 100 | > 100 µM | –
COc1ccccc1/C=C(\NC(=O)c1ccccc1)c1nc2ccccc2[nH]1 | 96.9 | > 100 | > 100 | > 100 µM | –
COc1c2c(c(O)c3c4c(c(C)cc13)C1OC3(C(OC)OC5CC(C)(O)C(OC6CC(C)(O)C(O)C(C)O6)C(C)O5)OC1C(OC)(O4)C31CO1)C(=O)C(O)CC2OC1CC(C)(O)C(OC(C)=O)C(C)O1 (configuration not stated) | 0.0889 | < 0.01 | 4.48 | – | –
O=c1[nH]c(=S)[nH]c2c1CCCN2 | > 100 | > 100 | > 100 | > 100 µM | –
CNC(=O)NCCCCC(NC(C)=O)C(=O)NCc1ccccc1 (configuration not stated) | > 100 | > 100 | > 100 | – | –
COc1ccc(OCC(=O)O)c2c1CCC(C)C2=O (configuration not stated) | – | > 100 | > 100 | > 100 µM | –
Cc1c(-c2ccc(-c3ccccc3F)cc2)nc2ccc(F)cc2c1C(=O)O | – | – | – | 192 µM and 182 µM | GI50 (MDA-N): 0.979 µM and 0.762 µM; GI50 (NCI/ADR-RES ovarian): 8.96 µM and 17.2 µM; TGI (NCI/ADR-RES ovarian): 170 µM and 377 µM; GI50 (PC-3 prostate): 0.27 µM and 0.75 µM; TGI (PC-3 prostate): 103 µM and 429 µM; TGI (SN12K1 renal): 70.9 µM; GI50 (DU-145 prostate): 0.867 µM and 1.18 µM; TGI (DU-145 prostate): 119 µM and 343 µM; GI50 (P388/ADR leukemia): 0.5 µM; TGI (P388/ADR leukemia): 60 µM and 125 µM; GI50 (HOP-18 NSCLC): 57 µM; GI50 (MDA-MB-435): 1.28 µM and 0.371 µM and 2.48 µM; TGI (MDA-MB-435): 101 µM and 128 µM
c1ccc(N2CCN(CCN3CCc4c([nH]c5ccccc45)C3c3cccnc3)CC2)cc1 (configuration not stated) | > 100 | > 100 | > 100 | > 100 µM | –
O=c1cc(-c2ccccc2)oc2cc(OCCCCCCCCCCOc3ccc4c(=O)cc(-c5ccccc5)oc4c3)ccc12 | > 100 | > 100 | > 100 | > 100 µM | –
O=S1(=O)CCC2=CC(C(F)(F)F)=CC(C(F)(F)F)=CN21 | 1.6 | 3.32 | 3.89 | 8.27 µM | TGI (MDA-N): 35.7 µM; TGI (PC-3 prostate): 5.91 µM; TGI (DU-145 prostate): 5.46 µM; TGI (MDA-MB-435): 4.77 µM
O=C(Nc1ccccc1)N1C(c2ccccc2)=N[C@@H](c2ccccc2)[C@@H]1c1ccccc1 | 31.6 | 29.9 | 79 | 50.7 µM | –
CCOC(=N)CC(=O)Nc1ccccc1CC | > 100 | – | > 100 | > 100 µM | –
O=C1C=C(NCCc2ccccc2)c2ccccc2C1=O | 19.1 | 5.81 | – | 3 µM | TGI (MDA-N): 3.39 µM; TGI (NCI/ADR-RES ovarian): 23 µM; TGI (PC-3 prostate): 26.2 µM; TGI (DU-145 prostate): 3.13 µM; TGI (MDA-MB-435): 2.34 µM
